Laboratory results taken from ChEMBL document CHEMBL5050844 (2019).

Experiments:
[1] = target: T1, E3 ubiquitin-protein ligase CBL-B (Homo sapiens, UniProt Q13191); assay: Inhibition of N-terminal Avi-tagged human CBL-B (36 to 427 residues) incubated with 60 nM Src kinase for 1.5 hrs followed by incubation with fluorescently labeled UbcH5B-Ub for 1 hr and measured by TR-FRET assay; assay type: single protein
[2] = Induction of anti-CD3/CD28 antibodies-stimulated human T cell activation at 0.3 uM assessed fold increase in IL-2 secretion measured by ELISA assay; assay type: functional, T cell line
[3] = Induction of anti-CD3 antibodies-stimulated human T cell activation at 1 uM assessed fold increase in IL-2 secretion measured by ELISA assay; assay type: functional, T cell line; also: reference of the scale not given here
[4] = Induction of anti-CD3 antibodies-stimulated human CD8+ T cell activation in immunocompetent mouse assessed fold increase in CD25 expression at 135 mg/kg, po administered twice a day; assay type: functional; also: reference of the scale not given here
[5] = Induction of anti-CD3 antibodies-stimulated human CD4+ T cell activation in immunocompetent mouse assessed fold increase in CD25 expression at 90 mg/kg, po administered twice a day; assay type: functional; also: reference of the scale not given here
[6] = Induction of anti-CD3 antibodies-stimulated human CD4+ T cell activation in immunocompetent mouse assessed fold increase in CD25 expression at 180 mg/kg, po administered twice a day; assay type: functional; also: reference of the scale not given here
[7] = Induction of anti-CD3 antibodies-stimulated human CD8+ T cell activation in immunocompetent mouse assessed fold increase in CD25 expression at 45 mg/kg, po administered twice a day; assay type: functional; also: reference of the scale not given here
[8] = Induction of anti-CD3 antibodies-stimulated human T cell activation at 1 uM assessed fold increase in CD25 expression measured by ELISA assay; assay type: functional, T cell line; also: reference of the scale not given here
[9] = Induction of anti-CD3/CD28 antibodies-stimulated human T cell activation at 1 uM assessed fold increase in CD25 expression measured by ELISA assay; assay type: functional, T cell line
[10] = Induction of anti-CD3 antibodies-stimulated human CD4+ T cell activation in immunocompetent mouse assessed fold increase in CD25 expression at 90 mg/kg, ip administered twice a day; assay type: functional; also: reference of the scale not given here
[11] = Induction of anti-CD3 antibodies-stimulated human CD8+ T cell activation in immunocompetent mouse assessed fold increase in CD25 expression at 90 mg/kg, ip administered thrice a day; assay type: functional; also: reference of the scale not given here
[12] = Induction of anti-CD3/CD28 antibodies-stimulated human T cell activation at 0.3 uM assessed fold increase in CD25 expression measured by ELISA assay; assay type: functional, T cell line
[13] = Induction of anti-CD3/CD28 antibodies-stimulated human T cell activation at 1 uM assessed fold increase in IL-2 secretion measured by ELISA assay; assay type: functional, T cell line
[14] = Induction of anti-CD3 antibodies-stimulated human CD8+ T cell activation in immunocompetent mouse assessed fold increase in CD25 expression at 180 mg/kg, po administered twice a day; assay type: functional; also: reference of the scale not given here
[15] = Induction of activation of human CD56+ CD3- NK cells co-cultured with human K562 cells in 1:1 ratio and assessed as increase in IFN-gamma secretion at 1 uM measured by ELISA assay; assay type: functional, Natural killer cell
[16] = Induction of activation of human CD56+ CD3- NK cells co-cultured with human K562 cells in 1:1 ratio and assessed as increase in MIP1beta secretion at 10 uM measured by ELISA assay; assay type: functional, Natural killer cell
[17] = Induction of anti-CD3/CD28 antibodies-stimulated human T cell activation at 4 uM assessed fold increase in IL-2 secretion measured by ELISA assay; assay type: functional, T cell line
[18] = Induction of anti-CD3/CD28 antibodies-stimulated human T cell activation at 4 uM assessed fold increase in CD25 expression measured by ELISA assay; assay type: functional, T cell line
[19] = Induction of anti-CD3 antibodies-stimulated human T cell activation at 8 uM assessed fold increase in CD25 expression measured by ELISA assay; assay type: functional, T cell line; also: reference of the scale not given here
[20] = Induction of activation of human CD56+ CD3- NK cells co-cultured with human K562 cells in 1:1 ratio and assessed as increase in IFN-gamma secretion at 10 uM measured by ELISA assay; assay type: functional, Natural killer cell
[21] = Induction of activation of human CD56+ CD3- NK cells co-cultured with human K562 cells in 5:1 ratio and assessed as increase in TNF-alpha secretion at 1 uM measured by ELISA assay; assay type: functional, Natural killer cell
[22] = Induction of activation of human CD56+ CD3- NK cells co-cultured with human K562 cells in 1:1 ratio and assessed as increase in TNF-alpha secretion at 1 uM measured by ELISA assay; assay type: functional, Natural killer cell
[23] = Induction of anti-CD3 antibodies-stimulated human CD8+ T cell activation in immunocompetent mouse assessed fold increase in CD25 expression at 90 mg/kg, po administered twice a day; assay type: functional; also: reference of the scale not given here
[24] = Induction of activation of human CD56+ CD3- NK cells co-cultured with human K562 cells in 5:1 ratio and assessed as increase in IFN-gamma secretion at 1 uM measured by ELISA assay; assay type: functional, Natural killer cell
[25] = Induction of activation of human CD56+ CD3- NK cells co-cultured with human K562 cells in 5:1 ratio and assessed as increase in MIP1beta secretion at 1 uM measured by ELISA assay; assay type: functional, Natural killer cell
[26] = Induction of anti-CD3 antibodies-stimulated human T cell activation at 8 uM assessed fold increase in IL-2 secretion measured by ELISA assay; assay type: functional, T cell line; also: reference of the scale not given here
[27] = Induction of activation of human CD56+ CD3- NK cells co-cultured with human K562 cells in 5:1 ratio and assessed as increase in MIP1beta secretion at 10 uM measured by ELISA assay; assay type: functional, Natural killer cell
[28] = Induction of activation of human CD56+ CD3- NK cells co-cultured with human K562 cells in 1:1 ratio and assessed as increase in TNF-alpha secretion at 10 uM measured by ELISA assay; assay type: functional, Natural killer cell
[29] = target: T1, E3 ubiquitin-protein ligase CBL-B; assay: Binding affinity towards N-terminal biotinylated Avi-tagged human CBL-B (36 to 427 residues) measured by surface plasmon resonance assay
[30] = Induction of activation of human CD56+ CD3- NK cells co-cultured with human K562 cells in 5:1 ratio and assessed as increase in IFN-gamma secretion at 10 uM measured by ELISA assay; assay type: functional, Natural killer cell
[31] = Induction of activation of human CD56+ CD3- NK cells co-cultured with human K562 cells in 5:1 ratio and assessed as increase in TNF-alpha secretion at 10 uM measured by ELISA assay; assay type: functional, Natural killer cell
[32] = Induction of anti-CD3 antibodies-stimulated human CD4+ T cell activation in immunocompetent mouse assessed fold increase in CD25 expression at 135 mg/kg, po administered twice a day; assay type: functional; also: reference of the scale not given here
[33] = Induction of activation of human CD56+ CD3- NK cells co-cultured with human K562 cells in 1:1 ratio and assessed as increase in MIP1beta secretion at 1 uM measured by ELISA assay; assay type: functional, Natural killer cell

T1 sequence (Q13191 whole entry, the tested form may be a part): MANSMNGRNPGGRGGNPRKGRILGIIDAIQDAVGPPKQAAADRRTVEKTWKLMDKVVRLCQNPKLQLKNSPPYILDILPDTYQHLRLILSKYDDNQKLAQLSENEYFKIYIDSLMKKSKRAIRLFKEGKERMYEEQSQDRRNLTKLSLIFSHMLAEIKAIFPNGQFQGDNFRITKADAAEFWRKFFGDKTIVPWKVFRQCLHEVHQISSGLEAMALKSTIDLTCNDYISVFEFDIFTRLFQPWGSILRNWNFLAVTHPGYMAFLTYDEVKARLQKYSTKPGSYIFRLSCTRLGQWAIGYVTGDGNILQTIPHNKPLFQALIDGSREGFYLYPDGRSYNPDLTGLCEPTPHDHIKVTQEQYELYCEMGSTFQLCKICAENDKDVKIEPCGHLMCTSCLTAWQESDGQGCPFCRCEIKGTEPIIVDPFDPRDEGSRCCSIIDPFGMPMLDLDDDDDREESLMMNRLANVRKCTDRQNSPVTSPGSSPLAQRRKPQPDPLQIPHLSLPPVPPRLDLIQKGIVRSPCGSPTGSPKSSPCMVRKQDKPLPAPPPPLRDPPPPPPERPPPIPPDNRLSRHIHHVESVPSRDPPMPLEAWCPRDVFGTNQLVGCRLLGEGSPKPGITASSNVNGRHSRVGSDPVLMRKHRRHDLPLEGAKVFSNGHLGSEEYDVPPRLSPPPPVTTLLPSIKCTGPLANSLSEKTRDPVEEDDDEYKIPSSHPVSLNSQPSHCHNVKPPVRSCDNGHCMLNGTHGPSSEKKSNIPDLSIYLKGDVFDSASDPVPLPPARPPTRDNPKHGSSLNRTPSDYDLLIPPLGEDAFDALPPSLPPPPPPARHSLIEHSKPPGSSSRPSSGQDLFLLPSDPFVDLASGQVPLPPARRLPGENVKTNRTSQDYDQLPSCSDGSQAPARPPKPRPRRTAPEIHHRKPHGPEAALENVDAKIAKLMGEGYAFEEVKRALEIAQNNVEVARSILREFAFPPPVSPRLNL

SMILES | IC50 [1] [nM] | fold change (FC) [2] | fold change (FC) [3] | fold change (FC) [4] | fold change (FC) [5] | fold change (FC) [6] | fold change (FC) [7] | fold change (FC) [8] | fold change (FC) [9] | fold change (FC) [10] | fold change (FC) [11] | fold change (FC) [12] | fold change (FC) [13] | fold change (FC) [14] | fold change (FC) [17] | fold change (FC) [18] | fold change (FC) [19] | fold change (FC) [23] | fold change (FC) [26] | fold change (FC) [32] | further results
C[C@@H](c1cc2c(c(C(F)(F)F)c1)CN(c1cccc(C3([C@@H](F)c4nncn4C)COC3)c1)C2=O)N1CCC2(CC2)C1 (single isomer, unassigned) | < 100 | >=7.5 | >=0.201 | 1.51 | >2.5 | >2.5 | 1 | >=1.001 | 1.31 | 1.51 | 1.51 | 1.31 | >=7.5 | 1.51 |  |  |  |  |  |  | 
C[C@@H]1CN(Cc2cc3c(c(C(F)(F)F)c2)CN(c2cccc(C4(Cc5nncn5C)COC4)c2)C3=O)CCO1 | < 100 | >=7.5 | >=0.201 |  |  |  | 1 | >=1.001 | 1.31 | 1 |  | 1.31 | >=7.5 |  |  |  |  | 1 |  | 1.51 | 
Cn1cnnc1CC1(c2cccc(N3Cc4c(cc(CN5CC[C@@H](C#N)C5)cc4C(F)(F)F)C3=O)c2)COC1 | < 100 | 5 | 0.101 | <1 | <1 | <1 | <1 | >=1.001 | 1.01 |  | <1 | 1.01 | >=7.5 | <1 | >=7.5 | 1.31 | >=1.001 | <1 | >=0.201 | <1 | 

Continued, in another order:

IC50 [1] [nM] | SMILES | fold change (FC) [2] | fold change (FC) [3] | fold change (FC) [4] | fold change (FC) [5] | fold change (FC) [6] | fold change (FC) [7] | fold change (FC) [8] | fold change (FC) [9] | fold change (FC) [10] | fold change (FC) [11] | fold change (FC) [12] | fold change (FC) [13] | fold change (FC) [14] | fold change (FC) [17] | fold change (FC) [18] | fold change (FC) [19] | fold change (FC) [23] | fold change (FC) [26] | fold change (FC) [32] | further results
< 100 | Cn1cnnc1C(F)(F)[C@](C)(F)c1cccc(N2Cc3c(cc(CN4CC[C@H](F)C4)cc3C(F)(F)F)C2=O)c1 | 2.51 | >=0.201 | 1 | 1 | 1.51 | <1 | >=1.001 | 1.51 |  | <1 | 1.31 | >=7.5 | 1 | >=7.5 | 1.51 | >=1.001 | 1 | >=0.201 | 1 | fold change (FC) [15]: 2.01; fold change (FC) [16]: 1.01; fold change (FC) [20]: >=5; fold change (FC) [21]: 2.01; fold change (FC) [22]: 2.01; fold change (FC) [24]: >=5; fold change (FC) [25]: 1.01; fold change (FC) [27]: 2.01; fold change (FC) [28]: 2.01; Kd [29]: < 100 nM; fold change (FC) [30]: >=5; fold change (FC) [31]: >=5; fold change (FC) [33]: <=1
< 100 | Cn1cnnc1C(F)(F)[C@](C)(F)c1cccc(N2Cc3c(cc(CN4CCC(F)(F)C4)cc3C(F)(F)F)C2=O)c1 | 1.01 | 0.101 | <1 | 1 | 1 | 1 | 0.801 | 1.01 |  | <1 | 1.01 | 2.51 | <1 | >=7.5 | 1.31 | >=1.001 | <1 | >=0.201 | 1 | fold change (FC) [15]: 1.01; fold change (FC) [16]: 2.01; fold change (FC) [20]: >=5; fold change (FC) [21]: 1.01; fold change (FC) [22]: 1.01; fold change (FC) [24]: 1.01; fold change (FC) [25]: 1.01; fold change (FC) [27]: 2.01; fold change (FC) [28]: 2.01; Kd [29]: < 100 nM; fold change (FC) [30]: >=5; fold change (FC) [31]: 2.01; fold change (FC) [33]: 1.01
